ChEMBL document CHEMBL4808172, “Structure-Activity Relationship of Heterocyclic P2Y14 Receptor Antagonists: Removal of the Zwitterionic Character with Piperidine Bioisosteres” (J Med Chem, 2021)
In brackets after ≈: the same amount, converted by molar mass. Several values for one entry are separate records, joined by “and”; a condition that tells them apart may be missing. Equal entries are not always repeated. Activity calls are given as the source filed them. The calls are words filed in the database; no cut-off is given here.

Tests used:
[1] = Stability of compound in aqueous medium after 24 hrs in absence of PLE by HPLC analysis; type: physicochemical; conditions: buffer
liver carboxylesterase [2] = biological target: T1, liver carboxylesterase (Sus scrofa, UniProt Q29550); experiment: Drug metabolism in pH 7.5 HEPES buffer assessed as porcine liver esterase-mediated compound hydrolysis measured up to 72 hrs by HPLC analysis; type: ADME; conditions: pig, read-out: Drug degradation
T1 sequence (Q29550 whole entry): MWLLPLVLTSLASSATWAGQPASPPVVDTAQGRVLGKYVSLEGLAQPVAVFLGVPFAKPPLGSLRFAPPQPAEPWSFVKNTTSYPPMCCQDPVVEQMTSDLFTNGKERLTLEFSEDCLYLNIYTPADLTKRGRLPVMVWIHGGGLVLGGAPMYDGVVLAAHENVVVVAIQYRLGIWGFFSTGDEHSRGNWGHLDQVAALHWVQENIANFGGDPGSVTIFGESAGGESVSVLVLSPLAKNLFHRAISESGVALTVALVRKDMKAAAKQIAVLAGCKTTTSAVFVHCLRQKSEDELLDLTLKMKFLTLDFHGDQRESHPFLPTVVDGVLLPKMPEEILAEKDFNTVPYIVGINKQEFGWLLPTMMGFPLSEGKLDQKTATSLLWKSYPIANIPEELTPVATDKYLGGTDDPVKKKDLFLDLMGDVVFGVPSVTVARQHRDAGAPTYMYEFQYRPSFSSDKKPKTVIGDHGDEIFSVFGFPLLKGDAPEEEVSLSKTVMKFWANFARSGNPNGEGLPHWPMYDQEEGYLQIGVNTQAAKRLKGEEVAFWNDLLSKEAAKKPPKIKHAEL

liver carboxylesterase [3] = biological target: T1, liver carboxylesterase; experiment: Drug metabolism in pH 7.5 HEPES buffer assessed as porcine liver esterase-mediated compound hydrolysis by measuring half life measured up to 72 hrs by HPLC analysis; type: ADME, tissue-based; conditions: pig
Mus musculus [4] = experiment: Antiinflammatory activity in mouse model of ovalbumin/Aspergillus-induced allergic asthma assessed as reduction in eosinophil counts in BALF at 20 umol/kg, ip administered 30 mins prior to allergen challenge and measured after 2 days post challenge; type: functional, organism-based; conditions: dose 20.0 µmol/kg, time 2.0 day
Histamine H1 receptor = Histamine H1 receptor (Homo sapiens, UniProt P35367); experiment: Binding affinity to H1 receptor (unknown origin)
[5] = Aqueous solubility of compound at pH 4.0; type: physicochemical; conditions: buffer
[6] = Aqueous solubility of compound at pH 7.4; type: physicochemical; conditions: buffer
Translocator protein = Translocator protein (Homo sapiens, UniProt P30536); experiment: Binding affinity to TSPO (unknown origin)
[7] = biological target: Voltage-gated inwardly rectifying potassium channel KCNH2 (Homo sapiens, UniProt Q12809)
HepG2 = experiment: Cytotoxicity against human HepG2 cells; type: cell-based
[8] = Clearance in Wistar rat at 10 mg/kg, ip measured upto 24 hrs by HPLC-MS/MS method; type: ADME, organism-based; conditions: in vivo
[9] = Microsomal stability in rat liver microsomes assessed as half life; type: ADME, Microsome
[10] = Stability of compound in stimulated intestinal fluid assessed as half life; type: ADME; conditions: simulated gi fluid
[11] = Elimination rate constant in Wistar rat at 0.5 mg/kg, iv measured upto 24 hrs by HPLC-MS/MS method; type: ADME, organism-based; conditions: in vivo
[12] = Clearance in Wistar rat at 3 mg/kg, ip measured upto 24 hrs by HPLC-MS/MS method; type: ADME, organism-based; conditions: in vivo
[13] = biological target: Sigma non-opioid intracellular receptor 1 (Homo sapiens, UniProt Q99720); experiment: Binding affinity to sigma 1 receptor (unknown origin)
Mus musculus [14] = experiment: Reversal of CCI-induced mechano-allodynia in mouse model of neuropathic pain at 10 umol/kg, ip after 2 hrs; type: functional, organism-based; conditions: dose 10.0 µmol/kg
Mus musculus [15] = experiment: Reversal of CCI-induced mechano-allodynia in mouse model of neuropathic pain at 10 umol/kg, ip measured after 3 to 5 hrs; type: functional, organism-based; conditions: dose 10.0 µmol/kg, time 3-5 hrs
[16] = Toxicity in mouse at 10 umol/kg, ip; conditions: in vivo, dose 10 µmol/kg
[17] = Bioavailability in Wistar rat at 10 mg/kg, ip measured upto 24 hrs by HPLC-MS/MS method; type: ADME, organism-based; conditions: in vivo
[18] = Stability in rat plasma assessed as half life; type: ADME, cell-free
[19] = biological target: Sigma intracellular receptor 2 (Homo sapiens, UniProt Q5BJF2); experiment: Binding affinity to sigma 2 receptor (unknown origin)
[20] = Microsomal stability in human liver microsomes assessed as half life; type: ADME, Microsome
[21] = Elimination rate constant in Wistar rat at 1 mg/kg, ip measured upto 24 hrs by HPLC-MS/MS method; type: ADME, organism-based; conditions: in vivo
[22] = Bioavailability in Wistar rat at 3 mg/kg, ip measured upto 24 hrs by HPLC-MS/MS method; type: ADME, organism-based; conditions: in vivo
[23] = Bioavailability in Wistar rat at 0.5 mg/kg, iv measured upto 24 hrs by HPLC-MS/MS method; type: ADME, organism-based; conditions: in vivo
[24] = Microsomal stability in mouse liver microsomes assessed as half life; type: ADME, Microsome
[25] = Elimination rate constant in Wistar rat at 3 mg/kg, ip measured upto 24 hrs by HPLC-MS/MS method; type: ADME, organism-based; conditions: in vivo
[26] = Stability in mouse plasma assessed as half life; type: ADME, cell-free
[27] = Stability of compound in stimulated gastric fluid assessed as half life; type: ADME; conditions: simulated gi fluid
[28] = AUC (0 to infinity) in Wistar rat at 1 mg/kg, ip measured upto 24 hrs by HPLC-MS/MS method; type: ADME, organism-based; set-up: route intraperitoneal, dose 1 mg/kg, time <=24; conditions: in vivo
[29] = Clearance in Wistar rat at 1 mg/kg, ip measured upto 24 hrs by HPLC-MS/MS method; type: ADME, organism-based; conditions: in vivo
[30] = Elimination rate constant in Wistar rat at 10 mg/kg, ip measured upto 24 hrs by HPLC-MS/MS method; type: ADME, organism-based; conditions: in vivo
[31] = Bioavailability in Wistar rat at 1 mg/kg, ip measured upto 24 hrs by HPLC-MS/MS method; type: ADME, organism-based; conditions: in vivo
[32] = biological target: Delta-type opioid receptor (Homo sapiens, UniProt P41143); experiment: Binding affinity to DOR (unknown origin)
Sequence of Delta-type opioid receptor (P41143 whole entry): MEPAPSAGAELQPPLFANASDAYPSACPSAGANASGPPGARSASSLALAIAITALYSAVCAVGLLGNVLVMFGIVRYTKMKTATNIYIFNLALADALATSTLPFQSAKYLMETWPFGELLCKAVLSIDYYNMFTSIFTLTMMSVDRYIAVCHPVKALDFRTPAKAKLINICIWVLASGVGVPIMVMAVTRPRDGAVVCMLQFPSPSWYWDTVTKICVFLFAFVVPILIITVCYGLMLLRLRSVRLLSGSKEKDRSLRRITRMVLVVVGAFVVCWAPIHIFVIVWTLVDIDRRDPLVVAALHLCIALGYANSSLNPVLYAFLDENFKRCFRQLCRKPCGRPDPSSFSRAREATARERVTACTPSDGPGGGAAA

Sequence of Translocator protein (P30536 whole entry): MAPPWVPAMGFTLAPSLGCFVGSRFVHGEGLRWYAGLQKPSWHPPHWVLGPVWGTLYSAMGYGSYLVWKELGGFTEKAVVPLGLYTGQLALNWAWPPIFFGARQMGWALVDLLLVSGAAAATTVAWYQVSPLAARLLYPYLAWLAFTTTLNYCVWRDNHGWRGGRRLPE
Sequence of Sigma intracellular receptor 2 (Q5BJF2 whole entry): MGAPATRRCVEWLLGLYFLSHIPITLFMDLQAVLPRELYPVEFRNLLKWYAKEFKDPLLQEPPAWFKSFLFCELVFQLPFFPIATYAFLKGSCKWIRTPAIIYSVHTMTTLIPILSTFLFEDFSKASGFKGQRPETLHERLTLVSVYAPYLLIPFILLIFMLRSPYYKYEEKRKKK
Sequence of Sigma non-opioid intracellular receptor 1 (Q99720 whole entry): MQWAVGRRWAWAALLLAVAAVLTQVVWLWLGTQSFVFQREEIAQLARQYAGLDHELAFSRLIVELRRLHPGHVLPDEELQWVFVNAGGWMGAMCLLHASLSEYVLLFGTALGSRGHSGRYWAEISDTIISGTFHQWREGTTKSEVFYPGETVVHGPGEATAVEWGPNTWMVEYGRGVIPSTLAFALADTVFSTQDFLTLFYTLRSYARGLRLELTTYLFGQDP
Sequence of Histamine H1 receptor (P35367 whole entry): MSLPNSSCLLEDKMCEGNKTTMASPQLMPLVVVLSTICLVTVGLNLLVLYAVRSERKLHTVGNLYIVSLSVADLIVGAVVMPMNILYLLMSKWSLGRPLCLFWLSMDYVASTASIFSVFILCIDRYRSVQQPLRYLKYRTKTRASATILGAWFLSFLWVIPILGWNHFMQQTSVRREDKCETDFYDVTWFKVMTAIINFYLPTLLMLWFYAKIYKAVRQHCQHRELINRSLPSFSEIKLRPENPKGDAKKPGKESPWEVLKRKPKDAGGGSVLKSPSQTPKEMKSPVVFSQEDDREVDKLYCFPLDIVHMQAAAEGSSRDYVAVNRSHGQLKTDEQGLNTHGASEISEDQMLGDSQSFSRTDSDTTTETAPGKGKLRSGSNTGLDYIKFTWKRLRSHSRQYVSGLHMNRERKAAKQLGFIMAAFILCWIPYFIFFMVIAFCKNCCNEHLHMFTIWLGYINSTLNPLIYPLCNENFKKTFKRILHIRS
Sequence of Voltage-gated inwardly rectifying potassium channel KCNH2 (Q12809 whole entry): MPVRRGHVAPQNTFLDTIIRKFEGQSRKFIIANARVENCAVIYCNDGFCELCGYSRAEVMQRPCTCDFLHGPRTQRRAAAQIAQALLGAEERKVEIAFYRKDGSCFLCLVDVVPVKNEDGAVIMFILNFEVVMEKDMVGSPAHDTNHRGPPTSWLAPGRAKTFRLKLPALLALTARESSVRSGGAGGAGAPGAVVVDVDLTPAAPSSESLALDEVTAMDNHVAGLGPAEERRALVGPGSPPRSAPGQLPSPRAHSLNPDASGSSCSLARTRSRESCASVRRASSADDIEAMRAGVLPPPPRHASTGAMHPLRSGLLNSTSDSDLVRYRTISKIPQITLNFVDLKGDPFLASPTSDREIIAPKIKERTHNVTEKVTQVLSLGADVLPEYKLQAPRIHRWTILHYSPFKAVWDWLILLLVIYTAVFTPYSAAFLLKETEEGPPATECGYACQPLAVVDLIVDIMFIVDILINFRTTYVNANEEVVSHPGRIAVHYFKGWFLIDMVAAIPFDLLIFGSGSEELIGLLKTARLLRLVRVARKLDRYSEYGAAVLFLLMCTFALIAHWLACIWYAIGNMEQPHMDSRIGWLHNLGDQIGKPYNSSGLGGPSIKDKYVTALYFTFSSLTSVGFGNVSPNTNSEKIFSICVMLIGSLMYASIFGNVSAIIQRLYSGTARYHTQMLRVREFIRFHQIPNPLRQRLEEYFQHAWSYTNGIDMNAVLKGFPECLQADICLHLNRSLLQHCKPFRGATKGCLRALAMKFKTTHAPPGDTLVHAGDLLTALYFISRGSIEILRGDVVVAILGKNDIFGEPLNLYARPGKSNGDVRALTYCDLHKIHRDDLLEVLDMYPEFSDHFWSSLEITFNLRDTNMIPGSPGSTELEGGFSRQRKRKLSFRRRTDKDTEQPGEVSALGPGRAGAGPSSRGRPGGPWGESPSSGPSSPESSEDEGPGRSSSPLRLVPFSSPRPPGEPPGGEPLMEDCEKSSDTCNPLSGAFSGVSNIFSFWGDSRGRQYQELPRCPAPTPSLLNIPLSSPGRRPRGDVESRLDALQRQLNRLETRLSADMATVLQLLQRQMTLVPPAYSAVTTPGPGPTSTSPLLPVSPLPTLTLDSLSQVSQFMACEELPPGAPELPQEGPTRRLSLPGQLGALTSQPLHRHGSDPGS

CN(C)C(=O)COC(=O)c1cc(-c2ccc(-c3cc(CO)on3)cc2)c2ccc(-c3ccc(C(F)(F)F)cc3)cc2c1
Stabilty [1]: Stable
metabolised at 72 h (liver carboxylesterase [2]): 32.6%
half-life (liver carboxylesterase [3]): > 72 h
Activity (Mus musculus [4]): Active

O=C(O)c1cc(-c2ccc(-c3cc(CO)on3)cc2)cc(-n2cc(-c3ccc(C(F)(F)F)cc3)nn2)c1
Ki (Histamine H1 receptor): 2650 nM
solubility [5]: 0.6 µg/mL (≈ 1.18 µM)
solubility [6]: 3.72 ug ml-1 and 7.34 uM
Ki (Translocator protein): 751 nM

O=C(O)c1cc(-c2ccc(C3CCNCC3)cc2)c2ccc(-c3ccc(C(F)(F)F)cc3)cc2c1 [PPTN]
EC50 [7]: > 30000 nM
Activity (Mus musculus [4]): Active

O=C(O)c1cc(-c2ccc(-c3cc(CO)on3)cc2)c2ccc(-c3ccc(C(F)(F)F)cc3)cc2c1
IC50 (HepG2): 8470 nM
CL/F [8]: 33.8 mL/min/kg
t1/2 [9]: 0.795 h
t1/2 [10]: > 4 h
k el at 24 h [11]: 0.000281 s⁻¹
CL/F [12]: 23.7 mL/min/kg
Ki [13]: 2680 nM
Activity (Mus musculus [14]): inactive
Activity (Mus musculus [15]): inactive
Activity [16]: Non-Toxic
F [17]: 105%
t1/2 [18]: > 4 h
Ki [19]: 4780 nM
t1/2 [20]: > 4 h
k el at 24 h [21]: 2.67e-05 s⁻¹
F [22]: 147%
F [23]: 100%
t1/2 [24]: > 4 h
k el at 24 h [25]: 4.11e-05 s⁻¹
t1/2 [26]: > 4 h
t1/2 [27]: 2.68 h
AUC [28]: 700 ng·h/mL
solubility [6]: 2.43 ug ml-1 and 4.96 uM
CL/F [29]: 23.8 mL/min/kg
Ki (Translocator protein): 4630 nM
k el at 24 h [30]: 6.47e-05 s⁻¹
F [31]: 139%

O=C(O)c1cc(-c2ccc(NC(=O)C3CCNCC3)cc2)cc(-n2cc(-c3ccc(C(F)(F)F)cc3)nn2)c1
Ki [13]: 2330 nM
Ki [32]: 2000 nM

NC(=O)Cc1ccc(-c2cc(C(=O)O)cc(-n3cc(-c4ccc(C(F)(F)F)cc4)nn3)c2)cc1
Ki [19]: 931 nM
Ki (Translocator protein): 2810 nM
